Results reported in US20120309734A1, “COMBRETASTATIN DERIVATIVES AND USES THEREFOR” (priority 2009, published 2012).

Legend:
p-glycoprotein = target: T1, p-glycoprotein (Homo sapiens, UniProt P08183); assay: Anti-proliferative effects in multi-drug resistant cells, conclusion on efflux; type: cell-based; conditions: concluded from resistance factors
T1 construct: HL-60-MDR (overexpress p-glycoprotein); endogenous in cells; host or cells: HL-60-MDR, A2780-ADR
Description: Three drug resistant cell lines and respective parental cell lines were assessed. […] Western blot analysis confirmed the overexpression of p-glycoprotein and BCRP in respective cell lines.
Cells were exposed to multiple concentrations of the indicated compound for 72 h. Cell viability was assessed using the Alamar blue assay and respective IC50 values were calculated. The resistance factor (RF) was calculated by dividing the IC50 of the resistant cell line/IC50 of the parental cell line.

[1] = test system: primary CML cells (BCR-ABL-positive); assay: Apoptosis in ex vivo CML cells, annexin V staining; type: cell-based, human; conditions: 72 h
Source text: This study is the first pre-clinical evaluation of combretastatins in the treatment of chemotherapy naive and patients with acquired imatinib mesylate resistance (refractory or relapsed disease despite adequate dose and duration). Imatinib mesylate is the first line treatment in BCR-ABL-positive CML chemotherapy. BCR-ABL, a constitutively active protein tyrosine kinase is a product of the Philadelphia chromosome (Ph) translocation t(9;22) and plays a central role in the pathogenesis of CML. […] All cells were treated with a clinically achievable concentration of imatinib mesylate (indicated as STI in FIG. 3) [250 nM]. […] The percentage apoptosis was determined by flow cytometric analysis of annexin-V stained cells.
The percentage of apoptosis in ex-vivo CML cells was determined by annexin V staining. […] Cells were collected by centrifugation at 400×g for 5 min and resuspended in anti-CD-45 diluted 1:50 in RPMI medium. Following a 10 min incubation in the dark at room temperature, cells were centrifuged and washed in Annexin binding buffer (Biosource, Nivelles, Belgium). Cells were again centrifuged and resuspended in Annexin-V-FITC (IQ products, Netherlands) diluted in Annexin binding buffer (1:50). Samples were next incubated in the dark on ice for 15 min. Annexin binding buffer (1 ml) was added to each sample. Samples were collected by centrifugation and resuspended in 0.5 ml of Annexin binding buffer. Cells were read immediately by flow cytometry and analysed by Cellquest software. CML cells were selected and gated based on their low to medium side scatter and low CD45 expression.

HUVECs = assay: VEGF-stimulated transwell migration assay; type: cell-based; conditions: Homo sapiens, HUVEC; 50 nM, 6 h, 10 ng/ml VEGF
Description: This modified transwell migration assay consisted of an upper and a lower chamber separated by a membrane. Migration of HUVECs from the upper to the lower chamber was stimulated by addition of VEGF to the lower chamber. The effect of compound 4 on this migration was determined by its addition along with VEGF into the lower chamber. Migration was expressed as a percentage of migration in control chambers treated with the vehicle (100%). HUVECs 10,000 cells in […] medium were seeded onto fibronectin-coated […] transwell inserts in 24-well plates containing medium. HUVEC migration was stimulated by the addition of 10 ng/ml VEGF to the lower wells. Vehicle (0.5% (v/v) ethanol) or compound 4 (50 nM) were also added to the lower wells. After 6 h, the upper surfaces of the inserts were swabbed to remove non-migrated cells. Filters containing the migrated cells were stained with 0.5% toulidine blue 0 and 0.5% sodium tetraborate. The cells were solubilised in 0.2% (w/v) SDS in 20 mM Tris-HCl, pH 7.7 and staining quantified as absorbance at 650 nm. […] P-values were determined using a two-tailed Student's paired t-test. A value of P<0.05 was considered to be significant.

HL-60(TB) = assay: NCI60 cell line screen; conditions: Homo sapiens
K-562 = assay: NCI60 cell line screen; conditions: Homo sapiens, K562
NCI-H226 = assay: NCI60 cell line screen; conditions: Homo sapiens
NCI-H552 = assay: NCI60 cell line screen
SNB-19 = assay: NCI60 cell line screen; conditions: Homo sapiens
M14 = assay: NCI60 cell line screen; conditions: Homo sapiens
SK-MEL-2 = assay: NCI60 cell line screen; conditions: Homo sapiens
SK-MEL-5 = assay: NCI60 cell line screen; conditions: Homo sapiens
UACC-257 = assay: NCI60 cell line screen; conditions: Homo sapiens
UACC-62 = assay: NCI60 cell line screen; conditions: Homo sapiens
IGROV1 = assay: NCI60 cell line screen; conditions: Homo sapiens, IGROV-1
OVCAR-4 = assay: NCI60 cell line screen; conditions: Homo sapiens
OVCAR-5 = assay: NCI60 cell line screen; conditions: Homo sapiens
PC-3 = assay: NCI60 cell line screen; conditions: Homo sapiens
DU-145 = assay: NCI60 cell line screen; conditions: Homo sapiens
BT-549 = assay: NCI60 cell line screen; conditions: Homo sapiens
[2] = Stability by HPLC at three pH values; type: physicochemical; conditions: for half-life: all pH values (4, 7.4, 9), HPLC; for stability at varying pH: pH 4, 7.4, 9, HPLC
Description: The stability of β-lactam compounds 4, 8 and 12 was assessed by HPLC at three different pH values. […] The half-lives of 8 and 12 were both greater than 24 hours at all pH values. The stability of three ester prodrug derivatives of 4, i.e. 29, 30 and 31, was also assessed (FIG. 6).

HOP-62 = assay: NCI60 cell line screen; conditions: Homo sapiens
MALME-3M = assay: NCI60 cell line screen; conditions: Homo sapiens

T1 sequence (P08183 whole entry): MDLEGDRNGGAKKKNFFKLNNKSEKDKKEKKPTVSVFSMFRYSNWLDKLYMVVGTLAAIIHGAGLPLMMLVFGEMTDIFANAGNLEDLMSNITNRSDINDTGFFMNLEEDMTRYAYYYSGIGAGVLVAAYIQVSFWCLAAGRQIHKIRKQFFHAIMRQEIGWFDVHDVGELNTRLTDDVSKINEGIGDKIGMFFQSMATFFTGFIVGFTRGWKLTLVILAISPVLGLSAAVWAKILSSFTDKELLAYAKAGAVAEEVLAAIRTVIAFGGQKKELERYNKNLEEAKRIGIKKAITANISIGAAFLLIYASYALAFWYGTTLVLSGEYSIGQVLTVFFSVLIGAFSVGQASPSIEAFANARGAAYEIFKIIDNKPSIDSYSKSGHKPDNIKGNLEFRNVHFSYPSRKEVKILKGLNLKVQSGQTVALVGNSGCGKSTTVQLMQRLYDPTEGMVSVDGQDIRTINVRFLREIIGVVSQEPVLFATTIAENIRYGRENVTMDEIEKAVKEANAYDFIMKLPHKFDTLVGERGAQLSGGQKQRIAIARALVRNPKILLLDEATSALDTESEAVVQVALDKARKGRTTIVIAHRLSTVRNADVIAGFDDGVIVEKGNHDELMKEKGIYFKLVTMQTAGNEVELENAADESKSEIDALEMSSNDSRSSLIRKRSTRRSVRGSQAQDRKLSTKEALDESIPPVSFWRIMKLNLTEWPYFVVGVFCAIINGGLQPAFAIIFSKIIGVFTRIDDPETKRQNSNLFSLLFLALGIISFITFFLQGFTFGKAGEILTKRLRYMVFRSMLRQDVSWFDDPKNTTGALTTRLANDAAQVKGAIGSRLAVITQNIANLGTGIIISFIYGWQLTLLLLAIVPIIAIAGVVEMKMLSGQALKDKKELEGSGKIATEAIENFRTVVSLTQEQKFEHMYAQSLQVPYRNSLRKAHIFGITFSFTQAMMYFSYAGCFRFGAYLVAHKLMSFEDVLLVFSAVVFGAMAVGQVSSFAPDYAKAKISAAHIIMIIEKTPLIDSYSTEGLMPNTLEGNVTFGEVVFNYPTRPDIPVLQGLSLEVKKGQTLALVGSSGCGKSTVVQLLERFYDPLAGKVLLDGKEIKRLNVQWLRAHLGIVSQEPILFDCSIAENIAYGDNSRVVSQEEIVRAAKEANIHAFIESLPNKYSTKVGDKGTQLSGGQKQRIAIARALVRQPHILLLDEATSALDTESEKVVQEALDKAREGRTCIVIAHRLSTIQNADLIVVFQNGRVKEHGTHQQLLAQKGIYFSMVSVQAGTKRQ

Structure (SMILES) | GI50 (HL-60(TB)) | GI50 (K-562) | GI50 (NCI-H226) | GI50 (NCI-H552) | GI50 (SNB-19) | GI50 (M14) | GI50 (SK-MEL-2) | GI50 (SK-MEL-5) | GI50 (UACC-257) | GI50 (UACC-62) | GI50 (IGROV1) | GI50 (OVCAR-4) | GI50 (OVCAR-5) | GI50 (PC-3) | GI50 (DU-145) | GI50 (BT-549) | half-life [2] | stability at varying pH [2] | GI50 (HOP-62) | also measured
COc1ccc(C2C(c3ccccc3)C(=O)N2c2cc(OC)c(OC)c(OC)c2)cc1O (stereo not drawn) [Compound 4, 4-(3-Hydroxy-4-methoxyphenyl)-3-phenyl-1-(3,4,5-trimethoxyphenyl)-azetidin-2-one] | < 10 nM | < 10 nM | < 10 nM | 5150 nM | 25 nM | < 10 nM | 14 nM | < 10 nM | 22400 nM | < 10 nM | < 10 nM | 18 nM | 38 nM | < 10 nM | < 10 nM | < 10 nM | – | – | – | substrate for the p-glycoprotein (p-glycoprotein): poor substrates for the p-glycoprotein; apoptosis induction compared with imatinib mesylate ([1]; 250 nM each, patient samples): more effective inducers of apoptosis than imatinib mesylate; apoptosis in primary CML cells ([1]; 250 nM, chemotherapy naïve (4 samples) and imatinib mesylate resistant (2 samples)): induced apoptosis; inhibition at 0.05 µM (HUVECs): 74%
COc1ccc(C2C(c3ccccc3)C(=O)N2c2cc(OC)c(OC)c(OC)c2)cc1 (stereo not drawn) [Compound 8, 4-(4-Methoxy-phenyl)-3-phenyl-1-(3,4,5-trimethoxy-phenyl)-azetidin-2-one] | 16.2 nM | 29.1 nM | 263 nM | 96.6 nM | 280 nM | 132 nM | > 100000 nM | 124 nM | 27900 nM | 40.5 nM | 285 nM | 82.5 nM | 668 nM | – | 56.9 nM | 117 nM | > 24 h | least stable at acidic pH 4 and relatively stable at pH's 7.4 and 9 | 605 nM | GI50 (MALME-3M): > 100000 nM
COc1ccc(C2C(c3cccs3)C(=O)N2c2cc(OC)c(OC)c(OC)c2)cc1 (stereo not drawn) [Compound 12, 4-(4-Methoxyphenyl)-3-thiophen-2-yl-1-(3,4,5-trimethoxyphenyl)-azetidin-2-one] | < 10 nM | – | < 10 nM | < 10 nM | 43 nM | < 10 nM | 7790 nM | 14 nM | 67800 nM | < 10 nM | 20 nM | 13 nM | 51 nM | < 10 nM | < 10 nM | < 10 nM | > 24 h | least stable at acidic pH 4 and relatively stable at pH's 7.4 and 9 | 70 nM | –
